Measurements published in patent US20260007680A1, “Compounds and Their Use as PDE4 Activators” (Mironid Limited, priority 2022, published 2026).

Columns and labels:
[1] = molecular target: T1, PDE4D5 (Homo sapiens, UniProt Q08499); experiment: PDE assay, activation of PDE4D5 long form (Experiment 1); type: biochemical; settings: 100 μM test compound; mean % increase in counts over basal activity
T1 construct: Using Full-Length Human PDE4 Isoforms; Long Forms PDE4D5, PDE4C3, PDE4B1 and Short Form PDE4B2; made in house; cytosol fraction of cell lysate
Method: (§1) One suitable method of detecting whether or not a compound is capable of serving as an activator of a PDE4 long form is using a two-step radio-assay procedure described in Experiment 1. In summary, the method involves incubating a PDE4 long form with a test small molecule activator, together with [^3H]-labelled cAMP to assess alterations in the breakdown of cAMP to the 5′-adenosine monophosphate (5′-AMP) product. A sample of the reaction mixture from such an incubation is subsequently treated with snake venom 5′-nucleotidase to allow conversion of the nucleotide [^3H]-labelled 5′-AMP to the uncharged nucleoside [^3H]-labelled adenosine, which can be separated and quantified to assess PDE4 activity and the effect of the test compound (Thompson, W. J. and Appleman, M. M. Biochemistry 10: 311-316, 1971, with some modifications as described in: Marchmont, R. J. and Houslay, M. D. Biochem J. 187: 381-92, 1980).
(§2) Experiment 1: Measurement of Modulation of Enzyme Activity by PDE4 Long Form Activators of the Present Invention Using Full-Length Human PDE4 Isoforms; Long Forms PDE4D5, PDE4C3, PDE4B1 and Short Form PDE4B2 • (Marchmont, R. J. and Houslay, M. D. Biochem. J. 187: 381-92, 1980)
For transient transfection of exogenous PDE4 long isoforms, HEK 293 cells were transfected with pcDNA3.1 or pDEST^TM PDE4 expression vectors using Lipofectamine LTX/Plus reagent (Invitrogen) as outlined by the manufacturer.
(§3) Where stable cell lines were generated the clonal isolates were expanded to obtain cell lines that stably expressed the full-length human PDE4 long isoforms and the full length human PDE4B2 short isoform. These were called the HEK-PDE4D5, HEK-PDE4B1 and HEK-PDE4B2 cell lines, respectively.
HEK-PDE4D5 cells were seeded out in 100 mm plates and incubated at 37° C. in an atmosphere of 5% CO2, 95% air. Cell lysates were prepared using KHEM buffer [50 mM KCl, 10 mM EGTA, 50 mM HEPES (pH 7.2), 1.92 mM MgCl2].
To prepare the cell lysates, the 100 mm plates containing the cells were placed on ice and washed with ice-cold PBS (phosphate buffered saline, pH 7.4). KHEM buffer (500 μL) was added to the cells. Cells were then scraped off the plate and triturated using a needle (BD Microlance™ 0.8, 40 mm). The lysed cells were then centrifuged at 2000 rpm for 10 minutes to remove cell debris and the supernatant (cell lysate containing recombinant PDE4D5) was transferred to a fresh tube and kept on ice.
The cell lysate containing recombinant PDE4D5 was transferred into a centrifuge tube and placed into an ultracentrifuge (BECKMAN COULTER) and spun at high speed (100,000 g) for 30 minutes at 4° C. The cytosol fraction was then collected and its protein amount determined using a BCA protein assay.
PDE assays were performed in thin walled V-bottomed 96-well plates. The assays were performed at a final concentration of 10 mM Tris/5 mM MgCl2 plus PDE4D5 cell lysate cytosol fraction, containing over-expressed PDE4D5, with and without test compound. The lysate/compound mix were incubated together for 15 min at room temperature on an orbital shaker prior to addition of [^3H] cAMP (final concentration 1 μM [^3H] cAMP; Perkin Elmer) to a final volume of 50 μL per reaction. The reactions were then incubated for 10 minutes at 30° C., terminated by heating for 2 min at 95° C. and allowed to cool. Snake venom (12.5 μL of 1 mg/mL; Crotalus atrox, Sigma) was then added and the plates were agitated and incubated for a further 15 minutes at 30° C. Dowex ion exchange resin (Sigma, chloride form, 200-400 mesh; 200 μL; prepared as a 1:1 Dowex:water stock, thoroughly re-suspended and diluted 2:1 with ethanol) was then added to each well and the plates incubated for 15 min at room temperature on an orbital shaker ensuring sufficient agitation for resin suspension (550 RPM). The reaction mixture was then transferred to a 96 well filter plate (Millipore; 0.45 μm pore size) and filtered into a receiving 96-well plate to remove the dowex suspension. […]

[2] = molecular target: T2, PDE4B2 (Homo sapiens, UniProt Q07343); experiment: PDE assay, PDE4B2 short form (Experiment 1); type: biochemical; settings: 100 μM test compound; mean % increase in counts over basal activity
T2 construct: the full length human PDE4B2 short isoform; made in house; cytosol fraction of cell lysate, prepared as described for PDE4D5
Method: as §1, §2, §3
PDE assays were performed in thin walled V-bottomed 96-well plates. The assays were performed at a final concentration of 10 mM Tris/5 mM MgCl2 plus PDE4D5 cell lysate cytosol fraction, containing over-expressed PDE4D5, with and without test compound. The lysate/compound mix were incubated together for 15 min at room temperature on an orbital shaker prior to addition of [^3H] cAMP (final concentration 1 μM [^3H] cAMP; Perkin Elmer) to a final volume of 50 μL per reaction. The reactions were then incubated for 10 minutes at 30° C., terminated by heating for 2 min at 95° C. and allowed to cool. Snake venom (12.5 μL of 1 mg/mL; Crotalus atrox, Sigma) was then added and the plates were agitated and incubated for a further 15 minutes at 30° C. Dowex ion exchange resin (Sigma, chloride form, 200-400 mesh; 200 μL; prepared as a 1:1 Dowex:water stock, thoroughly re-suspended and diluted 2:1 with ethanol) was then added to each well and the plates incubated for 15 min at room temperature on an orbital shaker ensuring sufficient agitation for resin suspension (550 RPM). The reaction mixture was then transferred to a 96 well filter plate (Millipore; 0.45 μm pore size) and filtered into a receiving 96-well plate to remove the dowex suspension. 30 μL of the filtered solution was then transferred to the wells of an Opti-plate (Perkin Elmer) 96 well assay plate and 120 μL of Microscint 40 scintillation fluid was added. The plate was then placed on an orbital shaker for 10 min at high speed (900 rpm) to mix the sample with scintillation fluid prior to quantitation using a plate based scintillation counter (Top-Count).
The % increase in counts in the presence of test compound at a particular concentration indicates the % increase in enzyme activity at that concentration.

T1 sequence (Q08499 1-745 isoform Q08499-6): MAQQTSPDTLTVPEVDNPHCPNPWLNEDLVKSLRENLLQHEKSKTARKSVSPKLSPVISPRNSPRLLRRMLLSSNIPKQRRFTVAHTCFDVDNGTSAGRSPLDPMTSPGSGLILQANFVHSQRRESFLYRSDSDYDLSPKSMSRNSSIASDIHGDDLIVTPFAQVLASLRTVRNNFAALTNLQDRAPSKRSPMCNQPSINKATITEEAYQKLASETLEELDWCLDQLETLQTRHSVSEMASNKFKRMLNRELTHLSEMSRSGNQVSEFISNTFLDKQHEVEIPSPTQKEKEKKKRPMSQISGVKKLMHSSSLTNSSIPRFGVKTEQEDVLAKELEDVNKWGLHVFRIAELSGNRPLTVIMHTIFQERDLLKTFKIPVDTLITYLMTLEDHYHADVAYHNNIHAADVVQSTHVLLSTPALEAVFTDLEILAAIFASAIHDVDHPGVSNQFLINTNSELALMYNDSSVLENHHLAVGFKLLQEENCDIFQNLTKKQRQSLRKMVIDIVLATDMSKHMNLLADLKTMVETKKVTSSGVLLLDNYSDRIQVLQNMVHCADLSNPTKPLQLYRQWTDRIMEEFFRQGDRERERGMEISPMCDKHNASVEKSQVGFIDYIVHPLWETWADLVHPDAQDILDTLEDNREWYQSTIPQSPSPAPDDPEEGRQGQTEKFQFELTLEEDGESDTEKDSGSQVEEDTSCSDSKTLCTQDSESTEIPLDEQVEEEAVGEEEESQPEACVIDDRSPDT
T2 sequence (Q07343 1-564 isoform Q07343-2): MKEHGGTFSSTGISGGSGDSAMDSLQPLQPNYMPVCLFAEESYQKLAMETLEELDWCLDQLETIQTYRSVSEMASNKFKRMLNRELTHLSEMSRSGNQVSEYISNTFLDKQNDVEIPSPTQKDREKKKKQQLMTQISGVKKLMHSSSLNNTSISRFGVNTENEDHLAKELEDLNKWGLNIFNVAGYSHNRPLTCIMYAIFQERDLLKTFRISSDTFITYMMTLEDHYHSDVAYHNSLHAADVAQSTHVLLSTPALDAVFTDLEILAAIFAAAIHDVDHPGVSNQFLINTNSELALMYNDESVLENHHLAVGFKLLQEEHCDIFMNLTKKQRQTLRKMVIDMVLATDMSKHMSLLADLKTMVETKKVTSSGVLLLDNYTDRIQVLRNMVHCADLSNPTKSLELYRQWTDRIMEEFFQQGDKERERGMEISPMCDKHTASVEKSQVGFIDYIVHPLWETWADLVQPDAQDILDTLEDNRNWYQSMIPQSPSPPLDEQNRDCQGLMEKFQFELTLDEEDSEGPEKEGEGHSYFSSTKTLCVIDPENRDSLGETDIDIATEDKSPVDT

Structure (SMILES) | activation at 100 µM [1] | activation at 100 µM [2]
O=C(N[C@H]1CCOc2ccccc21)c1cnc2cc(-c3cccnc3)nn2c1 [Example 90, (S)—N-(chroman-4-yl)-2-(pyridin-3-yl)pyrazolo[1,5-a]pyrimidine-6-carboxamide] | 99% | -8%
O=C(N[C@H]1CCc2ccccc21)c1ccc2[nH]c(-c3cccnc3)nc2c1 [Example 10, (S)—N-(2,3-dihydro-1H-inden-1-yl)-2-(pyridin-3-yl)-1H-benzo[d]imidazole-5-carboxamide] | 46% | -35%
Cc1ccc(-c2nc3ccc(C(=O)N[C@H]4CCOc5ccccc54)cn3n2)cn1 [Example 35, (S)—N-(chroman-4-yl)-2-(6-methylpyridin-3-yl)-[1,2,4]triazolo[1,5-a]pyridine-6-carboxamide] | 68% | -11%
O=C(N[C@H]1CCOc2ccccc21)c1ccc2[nH]c(-c3cccnc3)nc2c1 [Example 8, (S)—N-(chroman-4-yl)-2-(pyridin-3-yl)-1H-benzo[d]imidazole-5-carboxamide] | 52% | -35%
Cc1cncc(-c2nc3ccc(C(=O)N[C@H]4CCOc5ccccc54)cn3n2)c1 [Example 36, (S)—N-(chroman-4-yl)-2-(5-methylpyridin-3-yl)-[1,2,4]triazolo[1,5-a]pyridine-6-carboxamide] | 57% | 6%
Cc1ccncc1-c1nc2ccc(C(=O)N[C@H]3CCOc4ccccc43)cn2n1 [Example 37, (S)—N-(chroman-4-yl)-2-(4-methylpyridin-3-yl)-[1,2,4]triazolo[1,5-a]pyridine-6-carboxamide] | 127% | -24%
O=C(N[C@H]1CCOc2ccccc21)c1ccc2nc(-c3cccnc3)nn2c1 [Example 34, (S)—N-(chroman-4-yl)-2-(pyridin-3-yl)-[1,2,4]triazolo[1,5-a]pyridine-6-carboxamide] | 176% | 0%
Cc1ccc(-c2nc3ccc(C(=O)N[C@H]4CCOc5ccccc54)cn3n2)c(C)n1 [Example 39, (S)—N-(chroman-4-yl)-2-(2,6-dimethylpyridin-3-yl)-[1,2,4]triazolo[1,5-a]pyridine-6-carboxamide] | 63% | -28%
CN1CCC(c2nc3cc(C(=O)N[C@H]4CCCc5ccccc54)ccc3[nH]2)CC1 [Example 15, (S)-2-(1-methylpiperidin-4-yl)-N-(1,2,3,4-tetrahvdronaphthalen-1-yl)-1H-benzo[d]imidazole-5-carboxamide] | 123% | 3%
